Data from patent US20250296959A1, “B7-H3 TARGETING PEPTIDES AND CONSTRUCTS THEREOF” (Mariana Oncology Inc., priority 2024, published 2025).
Starred links: 1 amine or outer side, 2 acyl side, 3 side chain; linkers in the order of their positions; H or OH if unused. Positions of bridges follow the written chain, without caps; N, C: chain ends. Non-standard residues stand in square brackets, D forms with d. Residues, ends and D or L forms follow the SMILES beside them. Groups on a side chain read outwards from the residue. *: point of attachment. Ala(1-CH2CO2H-4-piperidyl) = N[C@@H](CC1CCN(CC(=O)O)CC1)C(=O)O; Ala(piperidin-4-yl) = O=C([C@H](CC1CCN([*:3])CC1)N[*:1])[*:2]; DOTA = O=C(O)CN1CCN(CC(=O)O)CCN(CC(=O)*)CCN(CC(=O)O)CC1; Trp(1-CH2COOH) = N[C@@H](Cc1cn(CC(=O)O)c2ccccc12)C(=O)O; Trp(5-F) = N[C@@H](Cc1c[nH]c2ccc(F)cc12)C(=O)O; C16 diacid = O=C(O)CCCCCCCCCCCCCCC(=O)*; γGlu = O=C(O)[C@H](CCC(=O)[*:2])N[*:1]; Ala(4-THP) = N[C@@H](CC1CCOCC1)C(=O)O; hLeu(5-Me) = CC(C)(C)CC[C@H](N)C(=O)O; Val(3-OH) = CC(C)(O)[C@H](N)C(=O)O; PEG4 = NCCOCCOCCOCCOCCC(=O)O; Tle = CC(C)(C)[C@H](N)C(=O)O; hLeu = CC(C)CC[C@H](N)C(=O)O; PEG1 = NCCOCCC(=O)O

Biological target: T1, human 4lg B7-H3 (Homo sapiens, UniProt Q5ZPR3)
T1 sequence (Q5ZPR3 29-534): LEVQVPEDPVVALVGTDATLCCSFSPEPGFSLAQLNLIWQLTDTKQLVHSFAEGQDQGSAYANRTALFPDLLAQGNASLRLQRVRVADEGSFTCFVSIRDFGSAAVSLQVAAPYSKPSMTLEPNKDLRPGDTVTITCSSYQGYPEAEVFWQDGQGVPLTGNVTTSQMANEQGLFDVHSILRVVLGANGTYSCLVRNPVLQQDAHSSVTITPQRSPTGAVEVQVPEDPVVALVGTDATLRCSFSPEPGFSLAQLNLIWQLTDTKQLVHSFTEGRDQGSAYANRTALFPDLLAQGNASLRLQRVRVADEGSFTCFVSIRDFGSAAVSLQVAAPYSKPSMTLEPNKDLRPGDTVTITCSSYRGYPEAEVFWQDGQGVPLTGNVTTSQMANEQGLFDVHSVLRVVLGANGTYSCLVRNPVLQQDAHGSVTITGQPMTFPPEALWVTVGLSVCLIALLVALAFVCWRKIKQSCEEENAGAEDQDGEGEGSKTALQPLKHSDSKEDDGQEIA
Experiment: Affinity determination by surface plasmon resonance (SPR) to 4Ig B7-H3
Conditions: SPR KD—37° C., 4Ig B7-H3; 37° C. flow cell temperature

Kd [nM]	SMILES
1 to 10	CC(C)CC[C@H](NC(=O)CCOCCNC(=O)CC[C@H](NC(=O)CN1CCN(CC(=O)O)CCN(CC(=O)O)CCN(CC(=O)O)CC1)C(=O)O)C(=O)N[C@@H](Cc1ccc(O)cc1)C(=O)N[C@H]1CSSC[C@@H](C(=O)N[C@@H](Cc2c[nH]c3ccc(F)cc23)C(=O)N[C@@H](Cc2ccccc2)C(=O)N[C@H](C(N)=O)C(C)(C)O)NC(=O)[C@H](Cc2ccc(O)cc2)NC(=O)[C@H](C(C)C)NC(=O)[C@H](CC(=O)O)NC(=O)[C@H](CC2CCOCC2)NC(=O)[C@H](CCCCN)NC(=O)CNC(=O)[C@H](C(C)(C)C)NC1=O [compound 395, DOTA-gE-PEG1-hLeu-Y-C-Tbg-G-K-ThpA-D-V-Y-C-5FW-F-hydroxyVal-CONH2] ({DOTA-γGlu-PEG1}-[hLeu]YC[Tle]GK[Ala(4-THP)]DVYC[Trp(5-F)]F[Val(3-OH)]-NH2; disulfide 3-11)
100 to 300	CC(=O)N[C@@H](CCC(C)C)C(=O)N[C@@H](Cc1ccc(O)cc1)C(=O)N[C@H]1CSSC[C@@H](C(=O)N[C@@H](Cc2cn(CC(=O)O)c3ccccc23)C(=O)N[C@@H](Cc2ccccc2)C(=O)N[C@H](C(=O)N[C@H](CCCCNC(=O)CN2CCN(CC(=O)O)CCN(CC(=O)O)CCN(CC(=O)O)CC2)C(=O)O)C(C)(C)O)NC(=O)[C@H](Cc2ccc(O)cc2)NC(=O)[C@H](C(C)C)NC(=O)[C@H](CC(=O)O)NC(=O)[C@H](CC2CCOCC2)NC(=O)[C@H](CCCCN)NC(=O)CNC(=O)[C@H](C(C)(C)C)NC1=O [compound 396, Ac-hLeu-Y-C-Tbg-G-K-ThpA-D-V-Y-C-Trp(CH2COOH)-F-hydroxyVal-dLys(DOTA)-COOH] (Ac-[hLeu]YC[Tle]GK[Ala(4-THP)]DVYC[Trp(1-CH2COOH)]F[Val(3-OH)][dK](DOTA)-OH; disulfide 3-11)
10 to 100	CC(=O)N[C@@H](CCC(C)(C)C)C(=O)N[C@@H](Cc1ccc(O)cc1)C(=O)N[C@H]1CSSC[C@@H](C(=O)N[C@@H](Cc2c[nH]c3ccc(F)cc23)C(=O)N[C@@H](Cc2ccccc2)C(=O)N[C@H](C(=O)N[C@H](CCCCNC(=O)CN2CCN(CC(=O)O)CCN(CC(=O)O)CCN(CC(=O)O)CC2)C(=O)O)C(C)(C)O)NC(=O)[C@H](Cc2ccc(O)cc2)NC(=O)[C@H](C(C)C)NC(=O)[C@H](CC(=O)O)NC(=O)[C@H](CC2CCOCC2)NC(=O)[C@H](CCCCN)NC(=O)CNC(=O)[C@H](C(C)(C)C)NC1=O [compound 397, Ac-hTba-Y-C-Tbg-G-K-ThpA-D-V-Y-C-5FW-F-hydroxyVal-dLys(DOTA)-COOH] (Ac-[hLeu(5-Me)]YC[Tle]GK[Ala(4-THP)]DVYC[Trp(5-F)]F[Val(3-OH)][dK](DOTA)-OH; disulfide 3-11)
1 to 10	CC(=O)N[C@@H](CCC(C)C)C(=O)N[C@@H](Cc1ccc(O)cc1)C(=O)N[C@H]1CSSC[C@@H](C(=O)N[C@@H](Cc2c[nH]c3ccc(F)cc23)C(=O)N[C@@H](Cc2ccccc2)C(=O)N[C@H](C(N)=O)C(C)(C)O)NC(=O)[C@H](Cc2ccc(O)cc2)NC(=O)[C@H](C(C)C)NC(=O)[C@H](CC(=O)O)NC(=O)[C@H](CC2CCOCC2)NC(=O)[C@H](CCCCN)NC(=O)CNC(=O)[C@H](C(C)(C)C)NC1=O [compound 404, Ac-hLeu-Y-C-Tbg-G-K-ThpA-D-V-Y-C-5FW-F-hydroxyVal-CONH2] (Ac-[hLeu]YC[Tle]GK[Ala(4-THP)]DVYC[Trp(5-F)]F[Val(3-OH)]-NH2; disulfide 3-11)
10 to 100	CC(=O)N[C@@H](CCC(C)C)C(=O)N[C@@H](Cc1ccc(O)cc1)C(=O)N[C@H]1CSSC[C@@H](C(=O)N[C@@H](Cc2c[nH]c3ccc(F)cc23)C(=O)N[C@@H](Cc2ccccc2)C(=O)N[C@H](C(=O)N[C@H](CCCCNC(=O)CN2CCN(CC(=O)O)CCN(CC(=O)O)CCN(CC(=O)O)CC2)C(=O)O)C(C)(C)O)NC(=O)[C@H](Cc2ccc(O)cc2)NC(=O)[C@H](C(C)C)NC(=O)[C@H](CC(=O)O)NC(=O)[C@H](CC2CCOCC2)NC(=O)[C@H](CCCCNC(=O)CC[C@H](NC(=O)CCCCCCCCCCCCCCC(=O)O)C(=O)O)NC(=O)CNC(=O)[C@H](C(C)(C)C)NC1=O [compound 405, Ac-hLeu-Y-C-Tbg-G-K(yE-C16OH)-ThpA-D-V-Y-C-5FW-F-hydroxyVal-dLys(DOTA)-COOH] (Ac-[hLeu]YC[Tle]GK([γGlu-C16 diacid])[Ala(4-THP)]DVYC[Trp(5-F)]F[Val(3-OH)][dK](DOTA)-OH; disulfide 3-11)
1 to 10	CC(=O)N[C@@H](CCC(C)C)C(=O)N[C@@H](Cc1ccc(O)cc1)C(=O)N[C@H]1CSSC[C@@H](C(=O)N[C@@H](Cc2c[nH]c3ccc(F)cc23)C(=O)N[C@@H](Cc2ccccc2)C(=O)N[C@H](C(=O)N[C@H](CCC(=O)O)C(N)=O)C(C)(C)O)NC(=O)[C@H](Cc2ccc(O)cc2)NC(=O)[C@H](C(C)C)NC(=O)[C@H](CC(=O)O)NC(=O)[C@H](CC2CCOCC2)NC(=O)[C@H](CC2CCN(C(=O)CCOCCOCCOCCOCCNC(=O)CN3CCN(CC(=O)O)CCN(CC(=O)O)CCN(CC(=O)O)CC3)CC2)NC(=O)CNC(=O)[C@H](C(C)(C)C)NC1=O [compound 409, Ac-hLeu-Y-C-Tbg-G-Pip(PEG4-DOTA)Ala-ThpA-D-V-Y-C-5FW-F-hydroxyVal-dGlu-CONH2] (Ac-[hLeu]YC[Tle]G[Ala(piperidin-4-yl)]([PEG4-DOTA])[Ala(4-THP)]DVYC[Trp(5-F)]F[Val(3-OH)][dE]-NH2; disulfide 3-11)
1 to 10	CC(=O)N[C@@H](CCC(C)C)C(=O)N[C@@H](Cc1ccc(O)cc1)C(=O)N[C@H]1CSSC[C@@H](C(=O)N[C@@H](Cc2c[nH]c3ccc(F)cc23)C(=O)N[C@@H](Cc2ccccc2)C(=O)N[C@H](C(N)=O)C(C)(C)O)NC(=O)[C@H](Cc2ccc(O)cc2)NC(=O)[C@H](C(C)C)NC(=O)[C@H](CC(=O)O)NC(=O)[C@H](CC2CCN(CC(=O)O)CC2)NC(=O)[C@H](CCCCNC(=O)CN2CCN(CC(=O)O)CCN(CC(=O)O)CCN(CC(=O)O)CC2)NC(=O)CNC(=O)[C@H](C(C)(C)C)NC1=O [compound 419, Ac-hLeu-Y-C-Tbg-G-Lys(DOTA)-Pip(CH2COOH)Ala-D-V-Y-C-5FW-F-hydroxyVal-CONH2] (Ac-[hLeu]YC[Tle]GK(DOTA)[Ala(1-CH2CO2H-4-piperidyl)]DVYC[Trp(5-F)]F[Val(3-OH)]-NH2; disulfide 3-11)
1 to 10	CC(=O)N[C@@H](CCC(C)C)C(=O)N[C@@H](Cc1ccc(O)cc1)C(=O)N[C@H]1CSSC[C@@H](C(=O)N[C@@H](Cc2c[nH]c3ccc(F)cc23)C(=O)N[C@@H](Cc2ccccc2)C(=O)N[C@H](C(=O)N[C@H](CO)C(N)=O)C(C)(C)O)NC(=O)[C@H](Cc2ccc(O)cc2)NC(=O)[C@H](C(C)C)NC(=O)[C@H](CC(=O)O)NC(=O)[C@H](CC2CCN(CC(=O)O)CC2)NC(=O)[C@H](CCCCNC(=O)CN2CCN(CC(=O)O)CCN(CC(=O)O)CCN(CC(=O)O)CC2)NC(=O)CNC(=O)[C@H](C(C)(C)C)NC1=O [compound 420, Ac-hLeu-Y-C-Tbg-G-Lys(DOTA)-Pip(CH2COOH)Ala-D-V-Y-C-5FW-F-hydroxyVal-dSer-CONH2] (Ac-[hLeu]YC[Tle]GK(DOTA)[Ala(1-CH2CO2H-4-piperidyl)]DVYC[Trp(5-F)]F[Val(3-OH)][dS]-NH2; disulfide 3-11)
1 to 10	CC(=O)N[C@@H](CCC(C)C)C(=O)N[C@@H](Cc1ccc(O)cc1)C(=O)N[C@H]1CSSC[C@@H](C(=O)N[C@@H](Cc2c[nH]c3ccc(F)cc23)C(=O)N[C@@H](Cc2ccccc2)C(=O)N[C@H](C(=O)N[C@H](CCC(=O)O)C(N)=O)C(C)(C)O)NC(=O)[C@H](Cc2ccc(O)cc2)NC(=O)[C@H](C(C)C)NC(=O)[C@H](CC(=O)O)NC(=O)[C@H](CC2CCN(CC(=O)O)CC2)NC(=O)[C@H](CCCCNC(=O)CN2CCN(CC(=O)O)CCN(CC(=O)O)CCN(CC(=O)O)CC2)NC(=O)CNC(=O)[C@H](C(C)(C)C)NC1=O [compound 421, Ac-hLeu-Y-C-Tbg-G-Lys(DOTA)-Pip(CH2COOH)Ala-D-V-Y-C-5FW-F-hydroxyVal-dGlu-CONH2] (Ac-[hLeu]YC[Tle]GK(DOTA)[Ala(1-CH2CO2H-4-piperidyl)]DVYC[Trp(5-F)]F[Val(3-OH)][dE]-NH2; disulfide 3-11)
1 to 10	CC(=O)N[C@@H](CCC(C)C)C(=O)N[C@@H](Cc1ccc(O)cc1)C(=O)N[C@H]1CSSC[C@@H](C(=O)N[C@@H](Cc2c[nH]c3ccc(F)cc23)C(=O)N[C@@H](Cc2ccccc2)C(=O)N[C@H](C(=O)N[C@H](CO)C(N)=O)C(C)(C)O)NC(=O)[C@H](Cc2ccc(O)cc2)NC(=O)[C@H](C(C)C)NC(=O)[C@H](CC(=O)O)NC(=O)[C@H](CC2CCOCC2)NC(=O)[C@H](CCCCNC(=O)CN2CCN(CC(=O)O)CCN(CC(=O)O)CCN(CC(=O)O)CC2)NC(=O)CNC(=O)[C@H](C(C)(C)C)NC1=O [compound 422, Ac-hLeu-Y-C-Tbg-G-Lys(DOTA)-ThpA-D-V-Y-C-5FW-F-hydroxyVal-dSer-CONH2] (Ac-[hLeu]YC[Tle]GK(DOTA)[Ala(4-THP)]DVYC[Trp(5-F)]F[Val(3-OH)][dS]-NH2; disulfide 3-11)
1 to 10	CC(=O)N[C@@H](CCC(C)C)C(=O)N[C@@H](Cc1ccc(O)cc1)C(=O)N[C@H]1CSSC[C@@H](C(=O)N[C@@H](Cc2c[nH]c3ccc(F)cc23)C(=O)N[C@@H](Cc2ccccc2)C(=O)N[C@H](C(=O)N[C@H](CCC(=O)O)C(N)=O)C(C)(C)O)NC(=O)[C@H](Cc2ccc(O)cc2)NC(=O)[C@H](C(C)C)NC(=O)[C@H](CC(=O)O)NC(=O)[C@H](CC2CCOCC2)NC(=O)[C@H](CCCCNC(=O)CN2CCN(CC(=O)O)CCN(CC(=O)O)CCN(CC(=O)O)CC2)NC(=O)CNC(=O)[C@H](C(C)(C)C)NC1=O [compound 423, Ac-hLeu-Y-C-Tbg-G-Lys(DOTA)-ThpA-D-V-Y-C-5FW-F-hydroxyVal-dGlu-CONH2] (Ac-[hLeu]YC[Tle]GK(DOTA)[Ala(4-THP)]DVYC[Trp(5-F)]F[Val(3-OH)][dE]-NH2; disulfide 3-11)
